{"source": "patent US20070219146A1", "about": "“Synergistic Pharmaceutical And/Or Neutraceutical Flavanoid Composition For Management Of Diabetes Mellitus” (priority 2006, published 2007)", "key": {"Alloxan diabetic mice [1]": {"system": "Alloxan diabetic mice", "assay": "Sub acute study (28 days) of Cocoa Flavanoid, blood sugar level in Alloxan diabetic mice", "assay_type": "in vivo, Swiss Albino mice (Male)", "conditions": "Glyburide 10 mg/kg; for Summary in percentage (Blood sugar level): reduction versus Normal", "description": "Swiss Albino mice (Male) in the weight range of 25 to 30 gram were studied for sub acute effect for 28 days. The mice were made diabetic by admnistration of Alloxan. As the mice became diabetic and the blood sugar was above […] they were chosen for the study. 4 groups were made. One group was given 50 mg/kg, 2nd group 100 mg/kg, 3rd group 250 mg/kg and the 4th group positive control glyburide at 10 mg/kg. Treatment was given for 28 days.\nA very interesting observation was made that the best effect was produced by the dose of 100 mg/kg body weight. The effect started by 7th day and increased up to 28th day. […] Unlike acute study, the sub acute study has confirmed that 100 mg/kg given the most optimal blood sugar reduction. This effect was sustained after the removal of treatment on 35th day."}, "Alloxan diabetic mice [2]": {"system": "Alloxan diabetic mice", "assay": "Acute study of Cocoa Flavanoid, blood sugar level in Alloxan diabetic mice", "assay_type": "in vivo, Swiss Albino mice (male)", "conditions": "Glyburide 10 mg/kg; for Summary in percentage (Blood sugar level): reduction versus Normal", "description": "Swiss Albino mice (male) in the weight range 25 to 30 grams were studied for acute affect. They were made diabetic by the admnistration of Alloxan (with admnistration of 70 mg/kg Alloxan and in 48 hours the animals develop diabetes). As the mice became diabetic and the blood sugar was above […], they were grouped into […] of six each. Each group was administered by the test drug at 25 mg/kg, 50 mg/kg 100 mg/kg and 250 mg/kg body weight. One group was administered a positive control drug glyburide at 10 mg/kg of body weight. Blood samples were drawn at 2 hour, 4 hour, 6 hour and 24 hour intervals for all mice. The blood sugar pattern is studied. It has been found out that the best results are obtained for a dose of 50 mg/kg body weight at 2 hours after administration and it increases up to the 6th hour. Good result is obtained for 100 mg/kg drug. […] The effect of 50 mg/kg compared very well with the effect of positive control drug glyburide at 10 mg/kg body weight.\nThis is an interesting finding that the hypoglycemic effect is best for a dose ranging between 50 mg to 100 mg/kg of body weight."}}, "data": [{"smiles": "COc1ccc(Cl)cc1C(=O)NCCc1ccc(S(=O)(=O)NC(=O)NC2CCCCC2)cc1", "note": "[Glyburide]", "values": [{"measurement": "Blood sugar level (reading)", "setting": "Alloxan diabetic mice [1]; Normal (before treatment)", "value": 396.09}, {"measurement": "Blood sugar level (reading)", "setting": "Alloxan diabetic mice [1]; day 7", "value": 323.46}, {"measurement": "Summary in percentage (Blood sugar level)", "setting": "Alloxan diabetic mice [1]; day 7", "value": 18, "unit": "%"}, {"measurement": "Blood sugar level (reading)", "setting": "Alloxan diabetic mice [1]; day 14", "value": 265.46}, {"measurement": "Summary in percentage (Blood sugar level)", "setting": "Alloxan diabetic mice [1]; day 14", "value": 33, "unit": "%"}, {"measurement": "Blood sugar level (reading)", "setting": "Alloxan diabetic mice [1]; day 21", "value": 170.82}, {"measurement": "Summary in percentage (Blood sugar level)", "setting": "Alloxan diabetic mice [1]; day 21", "value": 57, "unit": "%"}, {"measurement": "Blood sugar level (reading)", "setting": "Alloxan diabetic mice [1]; day 28", "value": 137.90}, {"measurement": "Summary in percentage (Blood sugar level)", "setting": "Alloxan diabetic mice [1]; day 28", "value": 65, "unit": "%"}, {"measurement": "Blood sugar level (reading)", "setting": "Alloxan diabetic mice [2]; 2 hour", "value": 317.50}, {"measurement": "Summary in percentage (Blood sugar level)", "setting": "Alloxan diabetic mice [2]; 2 hour", "value": 15, "unit": "%"}, {"measurement": "Blood sugar level (reading)", "setting": "Alloxan diabetic mice [2]; 4 hour", "value": 266.16}, {"measurement": "Summary in percentage (Blood sugar level)", "setting": "Alloxan diabetic mice [2]; 4 hour", "value": 29, "unit": "%"}, {"measurement": "Blood sugar level (reading)", "setting": "Alloxan diabetic mice [2]; 6 hour", "value": 149.50}, {"measurement": "Summary in percentage (Blood sugar level)", "setting": "Alloxan diabetic mice [2]; 6 hour", "value": 60, "unit": "%"}, {"measurement": "Blood sugar level (reading)", "setting": "Alloxan diabetic mice [2]; 24 hour", "value": 228.66}, {"measurement": "Summary in percentage (Blood sugar level)", "setting": "Alloxan diabetic mice [2]; 24 hour", "value": 39, "unit": "%"}, {"measurement": "Blood sugar level (reading)", "setting": "Alloxan diabetic mice [2]; Normal (before administration)", "value": 374.33}]}]}
